Where “and” joins values, the source holds several entries; their conditions need not be identical. Identical values can stand only once.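 Where inhibition never reached the appropriate level, the endpoint shown equals the highest concentration tested. Otherwise, values were interpolated linearly from a five-concentration, 48-hour dose response in 96-well plates. Here, GI50 denotes the concentration required for 50% inhibition of growth. TGI marks complete inhibition of growth.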
Assays:
Assay in all cases: inhibition of tumour cell growth, NCI panel, 48 h
[1] = tested on: K-562 leukemia
[2] = tested on: SW-620 colon
[3] = tested on: IGROV1 ovarian
[4] = tested on: OVCAR-3 ovarian
[5] = tested on: MOLT-4 leukemia
[6] = tested on: UACC-62 melanoma
[7] = tested on: ACHN renal
[8] = tested on: LOX IMVI melanoma

Structure (SMILES)	TGI [1]	TGI [2]	TGI [3]	TGI [4]	TGI [5]	TGI [6]	TGI [7]	TGI [8]	GI50 [1]	GI50 [2]	GI50 [3]	GI50 [4]	GI50 [5]	GI50 [6]	GI50 [7]	GI50 [8]
C[C@@H]1CC[C@@]2(NC1)O[C@H]1C[C@H]3[C@@H]4CC[C@H]5C[C@@H](O)CC[C@]5(C)[C@H]4CC[C@]3(C)[C@H]1[C@@H]2C	> 100 µM	> 100 µM	> 100 µM	> 100 µM	> 100 µM	> 100 µM	85.5 µM	> 100 µM	–	–	–	–	–	–	–	–
C=C1CCC2C3(C)COC(c4ccccc4Cl)OC3CCC2(C)C1/C=C/C1=CCOC1=O (centres undefined)	> 100 µM	> 100 µM	> 100 µM	> 100 µM	> 100 µM	> 100 µM	> 100 µM	> 100 µM	3.61 µM	25 µM	> 100 µM	26.2 µM	3.77 µM	11.2 µM	38.7 µM	6.77 µM
Nc1ccc(/C=C/c2ccc3cccnc3c2)cc1	> 100 µM	> 100 µM	–	> 100 µM	> 100 µM	> 100 µM	> 100 µM	> 100 µM	–	–	–	–	–	–	–	–
COc1cc2nccc(Oc3ccc(NC(=O)c4cn(C(C)C)c(=O)n(-c5ccc(F)cc5)c4=O)cc3F)c2cc1OC	> 100 µM	> 100 µM	> 100 µM	> 100 µM	> 100 µM	> 100 µM	> 26.3 µM	> 100 µM	0.0442 µM	5.77 µM	–	> 41.4 µM	> 100 µM	6.03 µM	2.69 µM	> 100 µM
CNC(=O)c1cncc(/C=C/c2ccccc2Cl)c1	> 25 µM	> 25 µM	> 25 µM	> 25 µM	> 25 µM	> 25 µM	> 25 µM	> 25 µM	> 25 µM	> 25 µM	> 25 µM	> 25 µM	> 25 µM	> 25 µM	> 25 µM	> 25 µM
CCN(Cc1c(F)cccc1Cl)c1ccc(CO)c(Cl)c1	12.6 µM	20 µM	–	0.297 µM	39.8 µM	0.269 µM	29.4 µM	33.5 µM	0.2 µM	0.175 µM	–	< 0.034 µM	17.1 µM	0.0419 µM	15.1 µM	18 µM
COC(=O)N[C@H]1CCc2c(Cl)c(OC)c(OC)c(OC)c2-c2ccc(SC)c(=O)cc21	> 43.9 µM	> 100 µM	> 52.5 µM	< 0.01 µM	> 76.8 µM	20.1 µM	38.1 µM	18.6 µM	< 0.01 µM	< 0.01 µM	< 0.01 µM	< 0.01 µM	< 0.01 µM	< 0.01 µM	< 0.01 µM	< 0.01 µM
Cc1cccc2c1[nH]c(=O)c1c3ccccc3cn21	–	17.8 µM	> 100 µM	28.2 µM	5.56 µM	28.1 µM	22.5 µM	18.4 µM	–	5.76 µM	3.69 µM	4.78 µM	1.81 µM	6.87 µM	4.08 µM	6.22 µM
COCCNc1cncc(C(N)=O)c1	> 100 µM	> 100 µM	> 100 µM	> 100 µM	> 100 µM	> 100 µM	> 100 µM	–	–	–	–	–	–	–	–	–
CCOC(=O)/C=C/c1cccc(F)c1	> 100 µM	> 100 µM	> 100 µM	–	> 100 µM	> 100 µM	> 100 µM	> 100 µM	–	–	–	–	–	–	–	–
COC(C)C(O)(C(=O)OCC1=CCN2CCC(O)C12)C(C)(C)O (centres undefined)	–	> 100 µM	> 100 µM	> 100 µM	> 100 µM	> 100 µM	> 100 µM	> 100 µM	–	–	–	–	–	–	–	–
COc1ccc2nc3cc(Cl)ccc3c(Nc3cc(CN4CCCC4)c(O)c(CN4CCCC4)c3)c2n1	–	4.95 µM	13.6 µM	14.7 µM	2.51 µM	3.56 µM	10.3 µM	5.09 µM	–	0.629 µM	2.51 µM	3.07 µM	0.41 µM	1.74 µM	1.69 µM	1.4 µM
CC1(C)CCC[C@]2(C)c3ccccc3C(=O)CC12 (some centres undefined)	> 100 µM	> 100 µM	> 100 µM	> 100 µM	> 100 µM	> 100 µM	> 100 µM	> 100 µM	41.4 µM	31 µM	45.3 µM	41.2 µM	75.8 µM	18.2 µM	67.4 µM	38.4 µM
CCn1c2ccccc2c2cc(C(=O)c3ccc(C)c4ccccc34)ccc21	> 100 µM	> 100 µM	> 100 µM	0.938 µM	> 100 µM	3.52 µM	> 100 µM	1.62 µM	0.338 µM	0.352 µM	0.635 µM	0.308 µM	0.0578 µM	0.296 µM	0.729 µM	0.323 µM
Nc1cccc2c1C(=O)c1cccc(NC(=O)c3ccccc3)c1C2=O	> 100 µM	> 100 µM	> 81.4 µM	1.47 µM	> 100 µM	14 µM	> 100 µM	> 100 µM	0.133 µM	0.267 µM	0.503 µM	0.254 µM	0.751 µM	0.221 µM	0.59 µM	0.565 µM
CO/N=C(\COc1ccc2oc(-c3ccccc3)cc(=O)c2c1)c1ccc(F)cc1	> 100 µM	> 100 µM	35.9 µM	> 100 µM	–	86.5 µM	34.5 µM	77.9 µM	81.2 µM	30.3 µM	15.2 µM	> 100 µM	–	21.9 µM	17.2 µM	25.2 µM
C[C@]12C[C@H](O)[C@H]3[C@@H](CCC4=CC(=O)CC[C@@]43C)[C@@H]1CC[C@@H]2c1csc(-c2ccccc2)n1	> 100 µM	> 100 µM	> 100 µM	> 100 µM	–	> 100 µM	> 100 µM	> 100 µM	–	–	–	–	–	–	–	–
COC(=O)[C@H](Cc1cn(C)cn1)NC(=O)[C@H](Cc1ccccc1)NC(=O)Nc1cc(C(F)(F)F)cc(C(F)(F)F)c1	20.5 µM	30.6 µM	37.2 µM	5.42 µM and 11.1 µM	28.9 µM	–	33.4 µM	9.27 µM and 20.6 µM	7.69 µM and 5.97 µM	14.5 µM	18.5 µM	2.25 µM and 3.46 µM	5.87 µM and 11.4 µM	–	17.2 µM	2.5 µM and 7.46 µM
